Assay results as given in US11872261B2, “Lipoprotein targeting protease inhibitors and uses” (The United States of America, as represented by the …, priority 2016, dated 2024).

System: lipoprotein proteome (LDL, HDL-L, HDL-S)
Assay: Lipoprotein proteomics, spectral counting of LDL, HDL-L and HDL-S pools
Format: in vivo, human
Settings: 28 days vs baseline
Experimental: Collected plasma from each subject at baseline (n=10) and after 28 days of rosuvastatin treatment (n=10) was applied to two Superdex 200 columns (GE Healthcare) arranged in series on an Akta FPLC system. The flow rate was set to 0.5 mL/min and 0.5 mL fractions were collected. Fractions were assayed for phosphatidylcholine, total cholesterol, free cholesterol and triglyceride by enzymatic assays (Wako Diagnostics) to determine position of elution for lipoproteins. For each subject, fractions were combined to make LDL (elution vol. 17.5-20 mL), HDL-large (HDL-L; elution vol. 21-23 mL) and HDL-small (HDL-S; elution vol. 23-25 mL) pools, generating a total of 60 samples for MS analysis.
Pooled FPLC fractions were applied to a phospholipid binding resin and washed to isolate lipid bound protein components, as previously described (Gordon et al., J Proteome Res 9: 5239-5249, 2010). Resin bound proteins were then subjected to overnight trypsin digestion at 37° C. Resulting peptides were collected and then reduced with dithiothreitol (200 mM; 30 min at 37° C.) and carbamidomethylated with iodoacetamide (800 mM; 30 min at 25° C.). Digest solutions were dried, reconstituted in 100 μL of water+0.1% formic acid and desalted using ZipTips (Millipore), and stored at −20° C. until MS analysis.
Desalted samples were dried and reconstituted in 20 μL of water+0.1% formic acid and 10 μL was analyzed on a Thermo Orbitrap Velos Mass Spectrometer instrument. Blank runs were performed between each sample to prevent carry over. Peak lists were generated using Proteome Discoverer (version 1.3.0.339) and resulting spectra were searched against the SwissProt database (version 012214), using Mascot (version 2.4.0) to identify protein components of the lipoprotein fractions (fragment ion mass tolerance of 0.80 Da and a parent ion tolerance of 20 PPM). Search criteria included: human taxonomy, fixed modification: carbamidomethylation (C), variable modifications: oxidation (M), deamidation (N, Q) and up to two missed trypsin cleavage sites were allowed. Validation of peptide and protein identifications was performed using Scaffold software (version 4.1.1) and a 1.0% false discovery rate (FDR) for both peptide and protein thresholds and a minimum of 2 identified peptides were required per protein. Calculated decoy FDR for peptide and protein identifications were 0.03% and 0.7%, respectively. Spectral counting was used as a semi-quantitative comparison of protein abundance between baseline and on-treatment samples using normalized spectrum count calculated by the Scaffold software. Comparisons were only performed to estimate the relative abundance of the same protein in the same lipoprotein pool before and after rosuvastatin treatment; no comparisons were made between lipoprotein fractions. Data was analyzed by student's T-test to identify proteins with statistically significant (p<0.05) changes in normalized spectral counts. Because this MS analysis was intended primarily for screening purposes, to identify candidates for hypothesis driven functional experiments, the data analysis was not corrected for multiple comparisons. All MS data have been deposited to the ProteomeXchange Consortium (Vizcaino et al., Nat Biotechnol 32: 223-226, 2014) via the PRIDE partner repository with the dataset identifier PXD002633.
To test our hypothesis that rosuvastatin alters the lipoprotein proteome, we pooled fractions containing LDL and HDL and used mass spectrometry (MS) to analyze the lipid associated protein content of each of these lipoproteins in each subject at baseline and after 28 days on rosuvastatin. The HDL peak was divided into two halves, representing large and small HDL, to gain additional insight given the proteomic complexity of HDL. […]

Structure (SMILES): CC(C)c1nc(N(C)S(C)(=O)=O)nc(-c2ccc(F)cc2)c1/C=C/[C@@H](O)C[C@@H](O)CC(=O)O [rosuvastatin]
- change in Ig kappa chain V-II spectral counts (LDL fraction): +68%
- change in complement C3 spectral counts (LDL fraction): +71%
- magnitude of reductions in protein spectral counts, LDL fraction (LDL fraction): −20 to −71%
- change in Ig lambda like polypeptide 5 spectral counts (large HDL): −12%
- change in N-acetylmuramoyl-L-alanine amidase spectral counts (large HDL): −69%
- change in alpha-1-antitrypsin (A1AT) spectral counts (large HDL): +2438%
- change in ceruloplasmin spectral counts (large HDL): +27%
- change in clusterin spectral counts (large HDL): −13%
- change in kallikrein spectral counts (large HDL): −26%
- increase in A1AT spectral counts associated with large HDL (large HDL): 24 fold
- change in alpha-1-antichymotrypsin spectral counts (small HDL fraction): −89%
- change in apolipoprotein C-III spectral counts (small HDL fraction): −13%
- change in complement C2 spectral counts (small HDL fraction): −44%
- change in vitronectin spectral counts (small HDL fraction): +23%
